Values quoted from earlier work, collected in patent US11793981B2, “Microneedle device for control of thyroid hormone levels” (priority 2020, dated 2023).
Where two headings read alike, the source gives them in different places.

Columns and labels:
hypothyroidism = details: LT4-treated patients, despite supposedly adequate LT4 treatment
[1] = pregnancy
[2] = hypothyroid patients receiving LT4

| Structure (SMILES) | half-life (oral LT4) | patients with residual symptoms of hypothyroidism and lower well-being (hypothyroidism) | crossing of the placenta [1] | lower serum levels of T3 [2] | half-life (oral LT3) |
| --- | --- | --- | --- | --- | --- |
| N[C@@H](Cc1cc(I)c(Oc2cc(I)c(O)c(I)c2)c(I)c1)C(=O)O [LT4, levothyroxine] | about seven | 10-20% | crosses the placenta | about 10% |  |
| N[C@@H](Cc1cc(I)c(Oc2ccc(O)c(I)c2)c(I)c1)C(=O)O [LT3, liothyronine] |  |  |  |  | hours to two days |
